Assay results from patent US20260083864A1, “CONTRAST AGENTS FOR USE IN DIAGNOSTIC COMPUTED TOMOGRAPHY IMAGING” (Bayer Aktiengesellschaft, priority 2022, published 2026).
Where two headings read alike, the source gives them in different places.

Tests used:
[1] = of the administered dose, literature; cited from earlier work
[2] = reference compounds, 1.5 T, 37° C., from Rohrer et al.; cited from earlier work
[3] = tested on: freshly isolated rat hepatocytes; test: Uptake into freshly isolated rat hepatocytes; details: for Inhibition Rifampicine: rat hepatocyte uptake, test item and Rifampicine 1:1, each 100 μM; for Uptake rat hepatocytes: 100 μmol Gd/L, 10 min, 37° C., relative to RC1 (Gd-EOB-DTPA)
Protocol: After incubation the adherent hepatocytes were washed once with 37° C. Hepes carbonate transport buffer (500 μL/well). The test items and RC1 were prepared from stock solutions (180 to 500 mM concentration) in Hepes carbonate transport buffer at pH 7.4 to reach a final concentration of 100 μmol Gd/L. The specific uptake of the test item or RC1 into rat hepatocytes via OATP1B1 and OATP1B3 was challenged using a known OATP1B1/1B3 inhibitor (Rifampicine, Fa. Sigma R3501, test item and inhibitor 1:1 each 100 μM final concentration). The prepared rat hepatocyte plates were incubated with test solutions (500 μL/well) at 37° C. for 10 min using a thermoshaker (Fa. Grant Bio, PHMP). Triplicates were performed for each test item. After incubating the cells were washed once with cold PBS buffer (Fa. Gibco, Dulbeccos PBS (+)). After washing the intact hepatocytes were lysed by addition of 500 μL cold 0.01% Triton-X 100 in Millipore water for 1 h. […] As a reference standard RC1 is used in the same well plate. The hepatocyte uptake of the test compound is calculated relative to RC1 (resulting in the unit % of RC1).

[4] = Partition coefficient (log P butanol/buffer); type: physicochemical; details: 1-butanol / 50 mM Tris-HCl, pH 7.4, room temperature
[5] = reference compounds, 1.5 T, 37° C., bovine plasma instead of human plasma, from Rohrer et al.; cited from earlier work
OATP1B1 = target: T1, OATP1B1 (Homo sapiens, UniProt Q9Y6L6); test: Uptake into stable transfected OATP1B1 HEK 293 cells; type: cell-based; details: for Uptake into OATP1B1-HEK 293 cells: 40 min incubation, relative to RC1 (Gd-EOB-DTPA); for Inhibition Rifampicine: uptake into OATP1B1-HEK 293 cells
T1 sequence (Q9Y6L6 1-691): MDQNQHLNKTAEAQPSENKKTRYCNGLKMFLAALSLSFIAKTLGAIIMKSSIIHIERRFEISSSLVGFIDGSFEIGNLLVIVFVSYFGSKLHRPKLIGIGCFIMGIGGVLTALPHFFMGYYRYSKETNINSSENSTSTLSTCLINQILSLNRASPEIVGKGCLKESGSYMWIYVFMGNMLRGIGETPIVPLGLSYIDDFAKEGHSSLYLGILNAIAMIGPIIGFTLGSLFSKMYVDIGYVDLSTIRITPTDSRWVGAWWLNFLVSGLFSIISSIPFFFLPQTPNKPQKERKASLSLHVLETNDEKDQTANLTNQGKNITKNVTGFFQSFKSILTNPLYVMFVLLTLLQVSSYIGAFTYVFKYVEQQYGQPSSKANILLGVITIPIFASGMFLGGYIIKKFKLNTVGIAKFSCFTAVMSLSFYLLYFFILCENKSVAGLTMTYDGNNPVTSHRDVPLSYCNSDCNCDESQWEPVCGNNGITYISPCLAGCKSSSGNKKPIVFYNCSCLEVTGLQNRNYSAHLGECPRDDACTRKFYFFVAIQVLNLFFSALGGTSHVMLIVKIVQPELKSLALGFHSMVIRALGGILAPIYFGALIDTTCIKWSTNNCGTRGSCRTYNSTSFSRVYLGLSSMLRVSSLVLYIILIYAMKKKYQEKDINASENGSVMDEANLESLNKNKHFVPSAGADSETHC
Summary of the method: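 Stably transfected OATP1B1 HEK293 cells incubated 40 min without shaking with test item at 100 µM final in transport buffer, in triplicate. Cells then washed with cold PBS; gadoxetate run on the same plate as reference.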

OATP1B3 = target: T2, OATP1B3 (Homo sapiens, UniProt Q9NPD5); test: Uptake into stable transfected OATP1B3 HEK 293 cells; type: cell-based; details: for Uptake into OATP1B3-HEK 293 cells: 40 min incubation, relative to RC1 (Gd-EOB-DTPA); for Inhibition Rifampicine: uptake into OATP1B3-HEK 293 cells
T2 sequence (Q9NPD5 1-702): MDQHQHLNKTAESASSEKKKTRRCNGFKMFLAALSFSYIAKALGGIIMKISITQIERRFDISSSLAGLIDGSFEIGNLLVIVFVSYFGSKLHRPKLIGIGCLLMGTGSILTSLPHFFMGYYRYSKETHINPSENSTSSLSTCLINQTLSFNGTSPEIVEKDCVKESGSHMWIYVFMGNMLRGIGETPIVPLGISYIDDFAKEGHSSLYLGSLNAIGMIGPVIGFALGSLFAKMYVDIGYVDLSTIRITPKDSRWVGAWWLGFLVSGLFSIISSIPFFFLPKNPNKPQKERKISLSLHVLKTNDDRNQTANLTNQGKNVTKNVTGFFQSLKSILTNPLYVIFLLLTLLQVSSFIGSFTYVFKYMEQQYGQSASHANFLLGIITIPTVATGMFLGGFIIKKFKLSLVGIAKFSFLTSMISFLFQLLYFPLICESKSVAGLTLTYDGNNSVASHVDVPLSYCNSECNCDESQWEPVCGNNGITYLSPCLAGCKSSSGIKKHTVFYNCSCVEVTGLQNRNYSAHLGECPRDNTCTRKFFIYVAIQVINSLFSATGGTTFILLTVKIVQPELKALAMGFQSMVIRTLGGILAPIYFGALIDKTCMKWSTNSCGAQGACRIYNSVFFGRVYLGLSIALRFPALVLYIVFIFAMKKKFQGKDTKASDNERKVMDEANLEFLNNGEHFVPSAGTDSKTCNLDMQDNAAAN
Summary of the method: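 HEK 293 cells stably transfected with human OATP1B3 were incubated for 40 min with test items at 100 μM final in transport buffer, in triplicate, then washed with cold PBS. Gadoxetate (Gd-EOB-DTPA) served as the reference standard on the same plate.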

[6] = Complex stability (transmetallation) against Zn2+ in phosphate buffer; details: 72 hours, 2.5 mM Zn^2+, 26 mM phosphate buffer, 37° C., pH 7.4
Excerpt: If test compounds are instable under these conditions, transmetallation during this test would lead to the formation of the Zn^2+ complex of the test item, while Gd^3+ is released and precipitated as highly insoluble GdPO4.

[7] = Water solubility in aqueous buffer; details: aqueous buffer 10 mM Tris-HCl, pH 7.4, 20° C.
Protocol: The solid compounds were added stepwise to the buffer solution. More substance is added once all the suspended material is dissolved until an equilibrium between undissolved and dissolved substance is reached. The suspension was mixed using a shaker (Heidolph Reax 2000) and treated 5 min in an ultrasound bath (Bandelin, Sonorex Super RK255H).

[8] = Relaxivity measurements at 1.41 T in water; type: physicochemical; details: 37° C., normalized to Gd
Summary of the method: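 T1 by inversion recovery and T2 by CPMG at 1.41 T (60 MHz), 37° C, relaxation delay ≥5×T1. Three Gd concentrations between 0.05 and 2 mM; relaxivities derived from measured relaxation rates in water.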

[9] = Relaxivity measurements at 1.41 T in human plasma; type: physicochemical; details: 37° C., normalized to Gd
Summary of the method: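 T1 determined by inversion recovery (8 inversion-time steps) and T2 by CPMG sequence, both with relaxation delay ≥5×T1. Each relaxivity used three Gd concentrations between 0.05 and 2 mM. Relaxivities were derived from relaxation rates measured in water and plasma.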

| SMILES | Secreted / excreted into the bile [1] | r1 water [2] [L/mmol/s] | Inhibition Rifampicine [3] [% inhibition] | Log P (partition coefficient butanol/buffer) [4] | r1 plasma (r1 human plasma) [5] [L/mmol/s] | Uptake into OATP1B1-HEK 293 cells (OATP1B1) | Inhibition Rifampicine (OATP1B1) [% inhibition] | Uptake into OATP1B3-HEK 293 cells (OATP1B3) | Inhibition Rifampicine (OATP1B3) [% inhibition] | Uptake rat hepatocytes [3] | Transmetallation stability [6] [%] | Solubility [7] [mM] | r1 water [8] [L/mmol/s] | r1 human plasma [9] [L/mmol/s] |
| --- | --- | --- | --- | --- | --- | --- | --- | --- | --- | --- | --- | --- | --- | --- |
| O=C([O-])CN(CCN(CC(=O)[O-])CC(=O)[O-])CCN(CC(=O)[O-])C(COCc1ccccc1)C(=O)[O-].[Gd+3].[H+].[H+] (stereo not shown) [Gd-BOPTA, gadobenic acid] | 3-to-5% | – | – | – | – | – | – | – | – | – | – | – | – | – |
| CCOc1ccc(C[C@@H](CN(CCN(CC(=O)[O-])CC(=O)[O-])CC(=O)[O-])N(CC(=O)[O-])CC(=O)[O-])cc1.[Gd+3].[H+].[H+] [Gd-EOB-DTPA, gadoxetic acid] | up to 50% | – | – | – | – | – | – | – | – | – | – | – | – | – |
| O=C([O-])CN1CCN(CC(=O)[O-])CCN([C@H](CO)[C@H](O)CO)CCN(CC(=O)[O-])CC1.[Gd+3] (racemic) [RC3, gadobutrol, reference compound] | – | 3.3 | 0 | −2.22 | 5.2 | – | – | – | – | – | – | – | – | – |
| CCOCCOCCOc1ccc(C[C@H](C(=O)O)N2CCN(CC(=O)[O-])CCN(CC(=O)[O-])CCN(CC(=O)[O-])CC2)cc1.[Gd+3] [Example 4, gadolinium 2,2′,2″-{10-[(1R)-1-carboxy-2-{4-[2-(2-ethoxyethoxy)ethoxy]phenyl}ethyl]-1,4,7,10-tetraazacyclododecane-1,4,7-triyl}triacetate] | – | – | 98 | −1.61 | – | 126 % of RC1 | 40 | 58 % of RC1 | 98 | 72 % of RC1 | 100 | >75 | 4.2 | 6.5 |
| CCCCOc1ccc(CCC[C@@H](C(=O)O)N2CCN(CC(=O)[O-])CCN(CC(=O)[O-])CCN(CC(=O)[O-])CC2)cc1.[Gd+3] [Example 31, gadolinium 2,2′,2″-{10-[(1S)-4-(4-butoxyphenyl)-1-carboxybutyl]-1,4,7,10-tetraazacyclododecane-1,4,7-triyl}triacetate] | – | – | 94 | 0.20 | – | 1919 % of RC1 | 98 | 194 % of RC1 | 99 | 87 % of RC1 | 102 | >255 | 4.4 | 15.8 |
| COCC(C(=O)O)N1CCN(CC(=O)[O-])CCN(C(Cc2ccc(OCC(F)(F)C(F)F)cc2)C(=O)[O-])CCN(CC(=O)[O-])CC1.[Gd+3] (stereo not shown) [Example 45, gadolinium-2-{4,10-bis(carboxylatomethyl)-7-[1-carboxy-2-methoxyethyl]-1,4,7,10-tetraazacyclododecan-1-yl}-3-[4-(2,2,3,3-tetrafluoropropoxy)phenyl]propanoate] | – | – | 82 | −0.36 | – | 492 % of RC1 | 95 | 106 % of RC1 | 98 | 68 % of RC1 | 100 | >63 | 4.5 | 11.4 |
| O=C([O-])CN(CCN(CC(=O)[O-])CC(=O)[O-])CCN(CC(=O)[O-])C(COCc1ccccc1)C(=O)[O-].[Gd+3].[H+].[H+] (stereo not shown) [RC2, gadobenic acid, reference compound] | – | 3.3 | 79 | −2.07 | 4.1 | 31 % of RC1 | 61 | 4 % of RC1 | 87 | 9 % of RC1 | 14 | – | – | – |
